Molecules are shown by their SMILES. pIC50: −log10 of the molar value. Entries after “also recorded” stand apart in the source; their conditions may differ.

Data on one compound can be found in patent US8765748B2, “Indazolyl, benzimidazolyl, benzotriazolyl substituted indolinone derivatives as kinase inhibitors useful in the treatment of cancer” (University Health Network, priority 2007, dated 2014).

In one assay the target is T1, PLK2 (Homo sapiens, UniProt Q9NYY3).
T1 construct: purchased Invitrogen PV4204
Briefly: PLK2 Inhibition Assay (Z-Lyte). Type of assay: biochemical. As to conditions: 10 μM compound; read-out: PLK2 relative inhibition percentage at a dose of 10 μM. Here is the method: PLK2 inhibition was determined using the Z-Lyte assay kit from Invitrogen (cat #PV3802). The assay was performed using the recommended manufacturer's instructions with 60 μM ATP and 133 nM PLK2 (Invitrogen cat #PV4204). The % inhibition values were determined according to the manufacturer's directions and IC50 values were obtained using a non-linear 4 point logistic curve fit (XLfit4, IDBS)

The target of the next assay is T2, human PLK4 (Homo sapiens, UniProt O00444).
T2 construct: amino terminal GST fusion of residues 1-391 of human PLK4; made in house; host or cells: E. coli
T2 sequence (O00444 1-391): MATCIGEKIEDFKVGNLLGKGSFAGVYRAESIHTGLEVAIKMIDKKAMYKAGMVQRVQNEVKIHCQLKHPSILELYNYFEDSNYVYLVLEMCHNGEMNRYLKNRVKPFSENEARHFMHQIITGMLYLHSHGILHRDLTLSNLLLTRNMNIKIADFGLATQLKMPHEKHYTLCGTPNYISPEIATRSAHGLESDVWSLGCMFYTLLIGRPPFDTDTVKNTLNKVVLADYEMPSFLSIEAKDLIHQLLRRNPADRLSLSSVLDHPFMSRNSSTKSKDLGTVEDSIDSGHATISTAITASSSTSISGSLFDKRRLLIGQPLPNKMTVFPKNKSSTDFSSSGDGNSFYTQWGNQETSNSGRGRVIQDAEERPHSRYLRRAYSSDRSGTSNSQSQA
Briefly: PLK4 Inhibition Assay (indirect ELISA). The format is biochemical. As to conditions: 15 μM ATP, 4 nM GST-PLK4; read-out: PLK4 IC50 Ranges. In short, it runs like this:
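IC50 values, from 4-point logistic fitting, reflect remaining activity measured by indirect ELISA. Enzyme was GST-PLK4 treated with lambda phosphatase and given a 15-minute pre-incubation with compound before ATP start.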

The subject of a further assay is HUV-EC-C cells. Briefly: In Vitro Angiogenesis Assay (tube formation). The format is cell-based. Conditions: 4 hr incubation, 8,000 cells per well, FIG. 1. The method, then:
HUV-EC-C cells were obtained from the American Type Culture Collection (ATCC, CRL-1730), and were used at early passage for the assay. The in vitro Angiogenesis Assay Kit (Chemicon) was used according to the manufacturer's recommendation. An ice-cold mixture of ECMatrix was transferred into a precooled 96-well plate. After the matrix solution had solidified (>1 hr incubation at 37° C.), 8,000 cells were mixed with the appropriate inhibitor concentration (in 100 microliters EGM-2) and plated into each well. After incubation at 37° C. for 4 hr, tube formation was inspected. Two methods, pattern recognition and branch point counting, were used to quantify the progression of angiogenesis and expressed as a percentage of the control tube count (FIG. 1).

In another assay the target is T3, Aurora A (Homo sapiens, UniProt O14965).
T3 construct: purchased Invitrogen PV3612
T3 sequence (O14965 1-403): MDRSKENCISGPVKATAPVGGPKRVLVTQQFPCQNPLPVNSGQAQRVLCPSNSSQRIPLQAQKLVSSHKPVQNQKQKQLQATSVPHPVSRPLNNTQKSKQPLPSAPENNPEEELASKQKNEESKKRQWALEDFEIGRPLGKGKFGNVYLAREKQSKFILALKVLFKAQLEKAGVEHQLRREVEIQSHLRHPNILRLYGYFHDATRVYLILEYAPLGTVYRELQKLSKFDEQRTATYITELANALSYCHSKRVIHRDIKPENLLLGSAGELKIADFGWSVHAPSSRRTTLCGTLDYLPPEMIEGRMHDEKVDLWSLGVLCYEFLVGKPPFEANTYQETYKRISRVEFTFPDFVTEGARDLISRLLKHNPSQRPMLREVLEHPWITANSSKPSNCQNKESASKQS
Briefly: Aurora A Inhibition Assay (Z-Lyte). The format is biochemical. Conditions: 20 μM ATP, 12 nM Aurora A; read-out: Aurora A IC50 Ranges. The method, then:
Aurora A inhibition was determined using the Z-Lyte assay kit from Invitrogen. The assay was performed using the recommended manufacturer's instructions with 20 μM ATP and 12 nM Aurora A (Invitrogen cat #PV3612). The % inhibition values were determined according to the manufacturer's directions and IC50 values were obtained using a non-linear 4 point logistic curve fit (XLfit4, IDBS)

Another assay deals with Lyn (Homo sapiens, UniProt P07948). Briefly: Millipore kinase assay, radiolabelled phosphopeptide filter binding, IC50 estimate. Type of assay: biochemical. Further details: purchased Millipore (assay service). Conditions: estimated from inhibition at three compound concentrations; ATP at the Km. Here is the method:
(§1) Kinase assays at Millipore were performed using a radiolabelled phosphopeptide filter binding detection system, in duplicate, at each compound concentration. The ATP substrate concentration in the reactions was at the Km for each enzyme.
(§2) To allow for a more direct comparison of compound inhibition, an IC50 value was estimated from the inhibition determined at three compound concentrations. Several assumptions were made to allow this calculation using a 4 parameter non linear curve fit model, including full inhibition set at 100%, no inhibition set to 0%, and a curve fit parameter set at 1. The inflection point was reported as the estimated IC50.

For another assay, the target named is Ret (Homo sapiens, UniProt P07949). The description is as above. The format is biochemical. Conditions: estimated from inhibition at three compound concentrations; ATP at the Km. Details: purchased Millipore (assay service). Here is the method: as §1, §2
The next assay has as its target Abl (Homo sapiens, UniProt P00519). The assay is described as above. As to conditions: estimated from inhibition at three compound concentrations; ATP at the Km. The format is biochemical. Further details: purchased Millipore (assay service). The method, then:
as §1, §2

The target of another assay is TRKA (Homo sapiens, UniProt P04629). The description is as above. Further details: purchased Millipore (assay service). The format is biochemical. Conditions: estimated from inhibition at three compound concentrations; ATP at the Km. Here is the method: as §1, §2
The target of another assay is T4, PDGFRβ (Homo sapiens, UniProt P09619).
T4 construct: purchased Millipore (assay service)
The description is as above. Conditions: estimated from inhibition at three compound concentrations; ATP at the Km. Type of assay: biochemical. Here is the method:
as §1, §2

The target of a further assay is T5, FLT-1 (Homo sapiens, UniProt P17948).
T5 construct: purchased Millipore (assay service)
Described as above. The format is biochemical. Conditions: estimated from inhibition at three compound concentrations; ATP at the Km. The method, then: as §1, §2

A further assay has as its target T6, KDR (Homo sapiens, UniProt P35968).
T6 construct: purchased Millipore (assay service)
Described as above. The format is biochemical. As to conditions: estimated from inhibition at three compound concentrations; ATP at the Km. The method, then: as §1, §2

In the next assay the target is FGFR1. The assay is described as above. The format is biochemical. Conditions: estimated from inhibition at three compound concentrations; ATP at the Km. Here is the method:
as §1, §2

For a further assay, the target named is T7, Aurora B (Homo sapiens, UniProt Q96GD4).
T7 construct: purchased Invitrogen PV3970
Briefly: Aurora B Inhibition Assay (Z-Lyte). The format is biochemical. As to conditions: 128 μM ATP, 28 nM Aurora B; read-out: Aurora B IC50 Ranges. Here is the method:
Aurora B inhibition was determined using the Z-Lyte assay kit from Invitrogen. The assay was performed using the recommended manufacturer's instructions with 128 μM ATP and 28 nM Aurora B (Invitrogen cat #PV3970). The % inhibition values were determined according to the manufacturer's directions and IC50 values were obtained using a non-linear 4 point logistic curve fit (XLfit4, IDBS)

Sequence of TRKA (P04629 33-796): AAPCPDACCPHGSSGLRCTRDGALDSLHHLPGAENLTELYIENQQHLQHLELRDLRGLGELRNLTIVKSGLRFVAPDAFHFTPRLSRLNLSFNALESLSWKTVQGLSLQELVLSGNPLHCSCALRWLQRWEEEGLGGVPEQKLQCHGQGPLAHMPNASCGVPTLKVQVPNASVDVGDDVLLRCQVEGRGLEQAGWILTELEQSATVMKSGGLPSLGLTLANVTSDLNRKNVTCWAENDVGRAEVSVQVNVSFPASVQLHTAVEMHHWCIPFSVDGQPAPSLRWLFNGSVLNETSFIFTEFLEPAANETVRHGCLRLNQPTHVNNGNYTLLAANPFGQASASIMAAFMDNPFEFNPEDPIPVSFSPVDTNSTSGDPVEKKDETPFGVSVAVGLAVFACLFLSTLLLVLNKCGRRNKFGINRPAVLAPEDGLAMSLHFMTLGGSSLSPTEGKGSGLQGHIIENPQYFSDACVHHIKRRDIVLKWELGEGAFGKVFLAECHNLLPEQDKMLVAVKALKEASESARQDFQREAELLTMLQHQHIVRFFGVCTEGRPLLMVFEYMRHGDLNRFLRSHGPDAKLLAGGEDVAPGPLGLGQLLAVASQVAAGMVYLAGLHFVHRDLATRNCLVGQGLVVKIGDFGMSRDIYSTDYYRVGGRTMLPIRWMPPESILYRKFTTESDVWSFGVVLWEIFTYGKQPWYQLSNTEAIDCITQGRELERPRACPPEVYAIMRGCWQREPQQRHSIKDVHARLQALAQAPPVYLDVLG
T4 sequence (P09619 33-1106): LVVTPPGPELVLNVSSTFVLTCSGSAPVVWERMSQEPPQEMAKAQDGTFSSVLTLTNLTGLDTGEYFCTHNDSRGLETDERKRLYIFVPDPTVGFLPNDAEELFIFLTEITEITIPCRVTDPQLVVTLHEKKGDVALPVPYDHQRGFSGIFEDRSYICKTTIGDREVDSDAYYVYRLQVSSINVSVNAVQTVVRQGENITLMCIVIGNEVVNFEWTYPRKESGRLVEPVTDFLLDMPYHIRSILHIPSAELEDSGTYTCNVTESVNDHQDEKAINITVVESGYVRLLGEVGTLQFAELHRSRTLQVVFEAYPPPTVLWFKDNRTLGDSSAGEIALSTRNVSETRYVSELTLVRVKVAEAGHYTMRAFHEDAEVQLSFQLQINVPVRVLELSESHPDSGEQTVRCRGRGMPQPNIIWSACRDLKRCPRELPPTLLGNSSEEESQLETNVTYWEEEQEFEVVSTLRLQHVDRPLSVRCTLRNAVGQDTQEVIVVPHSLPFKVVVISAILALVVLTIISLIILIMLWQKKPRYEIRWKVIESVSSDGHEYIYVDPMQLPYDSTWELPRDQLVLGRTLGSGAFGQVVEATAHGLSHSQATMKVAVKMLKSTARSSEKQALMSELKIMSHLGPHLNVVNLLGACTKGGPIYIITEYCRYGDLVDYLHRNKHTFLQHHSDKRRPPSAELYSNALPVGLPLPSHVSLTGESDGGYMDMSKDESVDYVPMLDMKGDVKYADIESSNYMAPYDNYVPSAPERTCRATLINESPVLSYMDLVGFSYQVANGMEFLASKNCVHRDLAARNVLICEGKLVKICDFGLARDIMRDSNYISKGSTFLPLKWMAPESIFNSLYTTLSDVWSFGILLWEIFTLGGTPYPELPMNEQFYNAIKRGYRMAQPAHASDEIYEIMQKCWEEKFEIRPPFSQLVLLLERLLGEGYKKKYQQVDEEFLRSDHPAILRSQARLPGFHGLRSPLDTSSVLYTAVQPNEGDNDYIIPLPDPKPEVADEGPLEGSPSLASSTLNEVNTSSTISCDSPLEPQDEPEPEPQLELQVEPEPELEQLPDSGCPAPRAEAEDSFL
T5 sequence (P17948 27-1338): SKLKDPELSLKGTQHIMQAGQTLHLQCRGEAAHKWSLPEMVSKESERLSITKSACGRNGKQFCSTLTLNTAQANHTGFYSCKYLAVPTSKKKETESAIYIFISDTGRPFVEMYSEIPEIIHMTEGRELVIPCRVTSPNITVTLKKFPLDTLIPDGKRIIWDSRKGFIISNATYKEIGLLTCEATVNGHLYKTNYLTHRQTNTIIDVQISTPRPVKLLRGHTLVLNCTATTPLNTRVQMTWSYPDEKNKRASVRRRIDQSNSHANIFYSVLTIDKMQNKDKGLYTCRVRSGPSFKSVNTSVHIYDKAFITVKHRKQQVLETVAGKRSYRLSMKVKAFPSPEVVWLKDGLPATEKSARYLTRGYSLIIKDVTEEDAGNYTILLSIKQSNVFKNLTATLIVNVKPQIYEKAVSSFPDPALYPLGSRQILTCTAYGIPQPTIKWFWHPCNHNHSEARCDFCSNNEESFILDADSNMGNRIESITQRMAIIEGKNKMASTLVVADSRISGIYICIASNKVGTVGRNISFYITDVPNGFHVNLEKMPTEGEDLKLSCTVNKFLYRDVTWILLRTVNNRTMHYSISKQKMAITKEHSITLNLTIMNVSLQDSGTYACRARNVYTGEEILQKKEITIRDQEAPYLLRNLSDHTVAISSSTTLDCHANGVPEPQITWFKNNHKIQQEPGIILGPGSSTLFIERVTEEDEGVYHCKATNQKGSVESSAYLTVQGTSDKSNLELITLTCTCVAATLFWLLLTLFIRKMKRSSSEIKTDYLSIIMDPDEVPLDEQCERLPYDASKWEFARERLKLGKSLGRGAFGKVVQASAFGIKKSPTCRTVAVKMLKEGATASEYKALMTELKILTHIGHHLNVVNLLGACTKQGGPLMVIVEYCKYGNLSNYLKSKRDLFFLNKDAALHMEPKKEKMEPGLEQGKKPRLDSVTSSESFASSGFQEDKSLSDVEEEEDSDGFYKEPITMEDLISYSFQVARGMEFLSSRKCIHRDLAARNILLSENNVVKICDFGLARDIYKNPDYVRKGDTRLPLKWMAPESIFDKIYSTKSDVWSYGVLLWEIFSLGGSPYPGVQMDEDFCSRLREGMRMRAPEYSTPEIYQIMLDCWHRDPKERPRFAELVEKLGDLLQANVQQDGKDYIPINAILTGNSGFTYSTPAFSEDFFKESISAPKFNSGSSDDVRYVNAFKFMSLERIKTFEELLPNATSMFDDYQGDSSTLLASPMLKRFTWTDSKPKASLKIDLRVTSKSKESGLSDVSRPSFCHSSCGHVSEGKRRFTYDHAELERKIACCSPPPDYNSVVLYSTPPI
T1 sequence (Q9NYY3 whole entry): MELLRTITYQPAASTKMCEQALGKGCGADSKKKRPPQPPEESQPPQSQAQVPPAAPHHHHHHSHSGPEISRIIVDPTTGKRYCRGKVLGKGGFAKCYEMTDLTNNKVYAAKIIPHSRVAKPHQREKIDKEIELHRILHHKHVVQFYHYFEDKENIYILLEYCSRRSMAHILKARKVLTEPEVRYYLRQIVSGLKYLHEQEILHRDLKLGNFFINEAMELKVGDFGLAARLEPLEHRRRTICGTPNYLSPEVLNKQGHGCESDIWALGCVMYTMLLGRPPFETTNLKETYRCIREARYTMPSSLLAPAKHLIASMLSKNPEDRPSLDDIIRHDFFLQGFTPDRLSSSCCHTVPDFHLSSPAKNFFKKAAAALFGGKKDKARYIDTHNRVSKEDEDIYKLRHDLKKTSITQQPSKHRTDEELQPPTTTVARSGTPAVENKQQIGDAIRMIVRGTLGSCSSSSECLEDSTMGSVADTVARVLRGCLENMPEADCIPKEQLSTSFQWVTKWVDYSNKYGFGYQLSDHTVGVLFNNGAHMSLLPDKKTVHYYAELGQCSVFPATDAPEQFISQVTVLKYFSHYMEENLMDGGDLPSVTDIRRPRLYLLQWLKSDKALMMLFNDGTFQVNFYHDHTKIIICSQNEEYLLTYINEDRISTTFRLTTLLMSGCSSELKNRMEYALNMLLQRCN
Sequence of Abl (P00519 whole entry): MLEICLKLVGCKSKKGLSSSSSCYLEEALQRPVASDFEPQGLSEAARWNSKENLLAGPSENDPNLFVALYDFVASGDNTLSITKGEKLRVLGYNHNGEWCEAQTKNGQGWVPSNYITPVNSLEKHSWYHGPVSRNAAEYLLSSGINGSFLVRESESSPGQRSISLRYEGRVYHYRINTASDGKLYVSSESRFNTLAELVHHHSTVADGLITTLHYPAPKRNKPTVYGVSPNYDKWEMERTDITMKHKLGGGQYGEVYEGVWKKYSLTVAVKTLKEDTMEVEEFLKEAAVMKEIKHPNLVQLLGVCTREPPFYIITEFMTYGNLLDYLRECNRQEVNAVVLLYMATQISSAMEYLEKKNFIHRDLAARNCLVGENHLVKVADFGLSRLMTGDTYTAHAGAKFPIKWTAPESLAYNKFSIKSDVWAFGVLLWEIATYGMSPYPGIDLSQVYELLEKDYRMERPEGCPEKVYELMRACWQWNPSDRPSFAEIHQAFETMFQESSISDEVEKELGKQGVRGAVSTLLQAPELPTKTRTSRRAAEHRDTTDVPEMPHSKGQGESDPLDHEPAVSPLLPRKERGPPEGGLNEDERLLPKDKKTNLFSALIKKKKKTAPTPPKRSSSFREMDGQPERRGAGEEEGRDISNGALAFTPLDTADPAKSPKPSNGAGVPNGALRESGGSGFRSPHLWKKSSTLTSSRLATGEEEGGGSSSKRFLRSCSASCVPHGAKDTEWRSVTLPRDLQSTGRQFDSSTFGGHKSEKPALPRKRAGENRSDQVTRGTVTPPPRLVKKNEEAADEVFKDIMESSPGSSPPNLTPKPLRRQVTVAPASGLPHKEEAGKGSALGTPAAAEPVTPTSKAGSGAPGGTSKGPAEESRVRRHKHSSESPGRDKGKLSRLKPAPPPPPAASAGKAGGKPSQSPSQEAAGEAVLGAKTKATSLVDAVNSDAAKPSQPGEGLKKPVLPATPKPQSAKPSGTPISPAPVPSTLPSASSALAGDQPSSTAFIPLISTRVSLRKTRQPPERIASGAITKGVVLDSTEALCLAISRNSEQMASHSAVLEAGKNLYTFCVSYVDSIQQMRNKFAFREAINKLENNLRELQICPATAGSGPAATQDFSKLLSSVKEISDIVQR

Take `O=C1Nc2ccccc2/C1=C\c1ccc2c(/C=C/c3ccncc3)n[nH]c2c1` [Example A57, (E)-3-((3-((E)-2-(pyridin-4-yl)vinyl)-1H-indazol-6-yl)methylene)-indolin-2-one]: the inhibition (commonly the drop in the measured response relative to a control, in per cent) at 10 µM at PLK2 is over 50%. In addition, the pIC50 on human PLK4, on Aurora A, on Lyn, on Ret, on Abl and on TRKA was over 5.30 in each case. Further, the pIC50 on PDGFRβ, on FLT-1, at KDR, on FGFR1 and at Aurora B was over 5.30 in each case. In addition, the “Inhibition of HUV-EC-C Cell Tube Formation (percentage of the control tube count)” value with HUV-EC-C cells is given as “anti-agiogenic effects at micromolar concentrations; also recorded: inhibition of HUV-EC-C Cell Tube Formation”.
